# Experimental data taken from patent publication US20240009218A1, “COMPOSITIONS AND METHODS USING A COMBINATION OF OLEUROPEIN AND QUERCETIN FOR USE IN CARTILAGE DEGENERATION” (SOCIETE DES PRODUITS NESTLE S.A., priority 2020, published 2024).
# What was measured:
# Format in all cases: cell-based
# SW1353 cells [1] = assay: Mitochondrial membrane potential (JC-10 ratio fluorescence 590/525 nm) in SW1353 cells; conditions: after 24 h of IL-1β vs control
# Experimental: To measure mitochondrial membrane potential, SW1353 cells were seeded in 96-well plates at a density of 8000 cells per well in Growth medium (DMEM high glucose, Gibco) with 10% fetal calf serum. Then, cells were loaded with the fluorescent mitochondrial membrane potential sensor JC-10. Fluorescence was acquired with MetaXpress Confocal (Molecular Devices) at following emission wavelengths: 590 nm (excitation at 540 nm) and 525 nm (excitation 490 nm), according to supplier's instructions. The ratio fluorescence at 590 nm/525 nm is proportional to change in the mitochondrial membrane potential.
# SW1353 cells [2] = assay: Mitochondrial calcium rise in SW1353 chondrocytes, IL-1β osteoarthritic model (mitochondrial aequorin); conditions: SW1353 cells treated with IL-1β vs control
# Experimental: To test the effect of oleuropein (or oleuropein aglycone), quercetin and their combination in living cells, the inventors measured mitochondrial calcium elevation in HeLa cells. HeLa cells were purchased from ATCC. HeLa cells were seeded in 96-well plates at a density of 50000 cells per well in minimal essential medium (DMEM, Gibco), high glucose, +10% fetal calf serum. Mitochondrial calcium measurements were carried out using Hela cells infected with the adenovirus (from Sirion biotech) expressing the mitochondrially targeted calcium sensor mitochondrial mutated aequorin (Montero et al., 2004). […] Luminescence was measured at the FLIPR Tetra Aequorin (Molecular Devices). […] Calibration of the luminescence data into calcium concentration was carried out using an algorithm, as described previously (Alvarez & Montero, 2002). Custom module analysis based on Excel (Microsoft) and GraphPad Prism 7.02 (Graph Pad) software was used for quantification.
# To validate the effect of the pro-inflammatory cytokine Interleukin-1β as an osteoarthritis-mimetic in a chondrocyte cellular model and to test the effect of the mitochondrial calcium uniporter (MCU) ablation on chondrocyte function, the inventors measured chondrocyte function and mitochondrial function in SW1353 cells. […]
# SW1353 cells [3] = assay: Chondrocyte function by western blot (collagen-IIα1, MMP3, MMP13) in SW1353 cells; conditions: SW1353 cells treated with IL-1β 24 h or 48 h vs control
# Experimental: To validate the effect of the pro-inflammatory cytokine Interleukin-1β as an osteoarthritis-mimetic in a chondrocyte cellular model and to test the effect of the mitochondrial calcium uniporter (MCU) ablation on chondrocyte function, the inventors measured chondrocyte function and mitochondrial function in SW1353 cells. SW1353 cells were purchased from ATCC. SW1353 cells were seeded in 96-well plates at a density of 10 000 cells per well […] (for mitochondrial calcium measurement) or at a density of 1 000 000 cells (for western blots). Cells were cultured in […] (DMEM, Gibco), high glucose, with 10% fetal calf serum and 1% Penicillin-Streptomycin.
# To assess chondrocyte function, the expression of collagen-IIα1, aggrecan, metalloproteinase-3 and -13 (MMP3 and MMP13), were analyzed by western blotting. SW1353 cells were treated or not with 10 ng/ml Interleukin-1b for 24 h or 48 h. Protein extracts were prepared in an appropriate buffer containing 150 mM NaCl, 1.0% IGEPAL CA-630, 0.5% sodium deoxycholate, 0.1% SDS, 50 mM Tris, pH 8.0, Complete EDTA-free protease inhibitor mixture (Roche), 1 mM PMSF, 1 mM NaVO3, 5 mM NaF and 3 mM β-glycerophosphate and phosphatase inhibitors (Roche). 40 μg of total proteins were loaded, according to BCA quantification. Proteins were separated by SDS-PAGE electrophoresis, in commercial 4-12% acrylamide gels (Thermo Fisher Scientific) and transferred onto PVDF membranes (Thermo Fisher Scientific) by wet electrophoretic transfer. Blots were blocked 1 hour at RT with 5% bovine serum albumin (Sigma-Aldrich) in TBS-tween (0.5M Tris, 1.5M NaCl, 0.01% Tween) solution and incubated overnight at 4° C. with primary antibodies. Secondary antibodies were incubated 1 hr at RT. The following antibodies were used: anti-collagen-II al (1:1000, Abcam), anti-aggrecan (1:1000, Abcam), anti-MMP-3 (1:1000, Abcam), anti-MMP-13 (1:1000, Abcam). […] Then the content collagen-IIα1, aggrecan, MMP3 and MMP13 were quantified with densitometry and normalized on the content of GAPDH (detected with anti-GAPDH, 1:5000, Cell Signaling)
# SW1353 cells [4] = assay: Cell death, Annexin-V positive cells (IncuCyte) in SW1353 cells; conditions: after 5 days of IL-1β treatment vs control
# Experimental: To quantify the effect of Interleukin-1β on cell death in SW1353 cells, kinetic experiments of apoptosis were performed with the IncuCyte ZOOM instrument (Essen Bioscience, Ann Arbor, MI, USA). Cells were seeded at 50% confluence in 96-well-plate format in DMEM medium. After 24 h, cells were incubated with IncuCyte Annexin-V Green (4642), according to supplier's instructions and treated with IL-1β. Four images per well were collected at the indicated time using a 10× objective and bandwidth filters (Ex: 440/80 nm; Em: 504/44 nm). Data were exported as area (μm2) per well covered by Annexin-V positive objects and normalized for the total area covered by the cells.
substance,measurement,setting,value
IL-1β: pro-inflammatory cytokine Interleukin-1β used as an osteoarthritis-mimetic in SW1353 chondrocytes,ratio fluorescence (590/525 nm) of mitochondrial membrane potential sensor JC10,SW1353 cells [1],significantly decreases
same,mitochondrial Ca2+ rise stimulated by agonist (histamine),SW1353 cells [2],decrease
same,collagen-IIα1 content,SW1353 cells [3],strongly decreased
same,expression of MMP3,SW1353 cells [3],increased
same,expression of MMP13,SW1353 cells [3],increased
same,Annexin-V positive cells (cell death),SW1353 cells [4],significantly increased
